Measured values taken from patent US20120040976A1, “SMALL MOLECULE IMMUNOMODULATORS FOR ALZHEIMER'S DISEASE” (HUMAN BIOMOLECULAR RESEARCH INSTITUTE, priority 2008, published 2012).
≈ marks a conversion by molar mass, not a printed value.

How the values were obtained:
[1] = Metabolic stability in human liver microsomes; type: in vitro ADME; conditions: human, read-out: Half life, t1/2 HLM
[2] = Metabolic stability in human S9 fraction; type: in vitro ADME; conditions: read-out: Half life, t1/2 S9
[3] = Chemical stability (H2O, pH 7.4); type: physicochemical
Average solubility = type: physicochemical
MGAT3 [4] = assay: MGAT3 transcription ratio, AD patient / control PBMCs (qPCR); type: cell-based, human; conditions: Aβ stimulation
Procedure: (§1) qPCR reactions of cultured monocyte cDNAs. One μL total cellular cDNA per reaction is used in triplicate reactions for each test gene, and for each culture treatment. SYBR-Green reactions were run on a Continuous Fluorescence real-time thermocycler and analyzed. Cycle threshold (Ct) values are recorded for each replicate reaction, and are then averaged and normalized against mean Ct values from one or more control genes. Fold-expression differences relative to untreated cells are determined using the 2^−ΔΔCt method as previously described. Data from the curcumin concentration range are plotted in order to determine EC50 values (concentrations producing one-half maximal stimulant activity), which are used for comparisons of potency between different compounds. Data are also evaluated for each gene with regard to sensitivity, maximally effective concentration of curcuminoid, response to Aβ, and overall magnitude of fold-expression changes.
(§2) MGAT3 and/or TLR transcription were tested by qPCR in human monocyte cells treated with curcuminoids and compared the results to those treated with vehicle (Table 7). As discussed above, activation or up-regulation of macrophage MGAT3 or TLR's results in many functional outcomes, including the enhancement of […] and removal of Aβ, increased apoptosis, secretion of inflammatory cytokines, and other anti-AD antimicrobial activities. […] Thus, the ratio of MGAT3 or TLR transcription upon Aβ stimulation of human monocytes versus vehicle treatment provides an indicator and sensitive method to test the in vitro efficacy of drug candidates. […] The relative biological activity of the curcumin analogs in AD patient and control cells was ascertained in the in vitro Aβ assay described above (see Example 2).

TLR 2 = TLR 2 transcription ratio, AD patient / control PBMCs (qPCR); type: cell-based, human; conditions: Aβ stimulation
Procedure: as §1, §2

TLR 3 = TLR 3 transcription ratio, AD patient / control PBMCs (qPCR); type: cell-based, human; conditions: Aβ stimulation
Procedure: as §1, §2

TLR 4 = TLR 4 transcription ratio, AD patient / control PBMCs (qPCR); type: cell-based, human; conditions: Aβ stimulation
Procedure: as §1, §2

Average permeability = type: in vitro ADME; conditions: not told
MGAT3 [5] = assay: MGAT3 gene expression by qPCR in U-937 human monocytic cells treated with curcumins plus Aβ; type: cell-based; conditions: human monocytic cells (U-937), curcumin plus Aβ
Procedure: (§3) Cell culture conditions for monocytic cell lines. Human and mouse monocyte cell lines are grown in RPMI-1640 medium with 10% fetal bovine serum (FBS), plus glutamine and pen/strep. For treatment with compounds (curcuminoids+/−Aβ), replicate sets of 0.5-1.0 mL cultures containing 1-2×10^6 cells are set up in the wells of 48-well tissue culture plates. Both replicate sets have at least one control well receiving no added curcuminoid to provide baseline expression controls for untreated, and Aβ-only treated cells. Remaining wells receive curcuminoid in a range of 10-fold serial dilutions in DMSO, typically from […] Cultures are incubated for 20-24 hours (“overnight”) at 37° C. in atmosphere with 5% CO2. After one overnight, to one of replicate sets of cultures is added Aβ (1-42) peptide to a final concentration of 5 μg/mL.
(§4) RNA isolation and cDNA synthesis. After the first overnight incubation in the presence of curcuminoid, cells from one replicate set of wells are collected by centifugation. RNAs are extracted from pelleted cells using miniprep column kits following manufacturer's protocol for animal cells. […] of total cellular RNA from each well is quantitated using a Nanodrop spectrophotometer, and first-strand total cDNA is prepared from 0.3-1.0 μg RNA by random-hexamer priming. Following the second 20 hr. incubation in the presence of Aβ, RNA extractions and cDNA synthesis are similarly performed.
Assay development. Gene-specific mRNA levels are determined using a real-time thermocycler, and by normalizing to expression of one or more control genes. Assays for quantifying mRNA levels are based on gene sequences reported in NCBI Genbank. PCR oligonucleotide primers are selected spanning introns to minimize the opportunity for amplication from any contaminating genomic DNA in the RNA preps. Oligonucleotides are typically tested and used at a concentration of 200 nM in qPCR reactions containing SYBR dye. Control reactions include template from cDNA synthesis reactions either + or − reverse transcriptase (RT), as well as no-template controls (ntc). […] Melt curves based on incremental 0.5° C. increases are determined for new assays to test for uniformity of amplified products. […]
qPCR reactions of cultured monocyte cDNAs. […] SYBR-Green reactions were run on a Continuous Fluorescence real-time thermocycler and analyzed. Cycle threshold (Ct) values are recorded for each replicate reaction, and are then averaged and normalized against mean Ct values from one or more control genes. Fold-expression differences relative to untreated cells are determined using the 2^−ΔΔCt method as previously described. […] Data are also evaluated for each gene with regard to sensitivity, maximally effective concentration of curcuminoid, response to Aβ, and overall magnitude of fold-expression changes. […]

TLR2 = TLR2 gene expression by qPCR in U-937 human monocytic cells treated with curcumins plus Aβ; type: cell-based; conditions: human monocytic cells (U-937), curcumin plus Aβ
Procedure: as §3, §4
(§5) Assay development. Gene-specific mRNA levels are determined using a real-time thermocycler, and by normalizing to expression of one or more control genes. Assays for quantifying mRNA levels are based on gene sequences reported in NCBI Genbank. PCR oligonucleotide primers are selected spanning introns to minimize the opportunity for amplication from any contaminating genomic DNA in the RNA preps. Oligonucleotides are typically tested and used at a concentration of 200 nM in qPCR reactions containing SYBR dye. Control reactions include template from cDNA synthesis reactions either + or − reverse transcriptase (RT), as well as no-template controls (ntc). All reactions are performed in triplicate. Reactions are typically run with 40 cycles of 95° C. (10 sec) and 58° C. (30 sec). Melt curves based on incremental 0.5° C. increases are determined for new assays to test for uniformity of amplified products. Reaction conditions are modified as needed depending on initial test results. ‘Working’ assays are selected based on clear RNA-dependent amplification and absence of product in ‘ntc’ reactions. The following assay primers are used: […]
(§6) qPCR reactions of cultured monocyte cDNAs. One μL total cellular cDNA per reaction is used in triplicate reactions for each test gene, and for each culture treatment. SYBR-Green reactions were run on a Continuous Fluorescence real-time thermocycler and analyzed. Cycle threshold (Ct) values are recorded for each replicate reaction, and are then averaged and normalized against mean Ct values from one or more control genes. Fold-expression differences relative to untreated cells are determined using the 2^−ΔΔCt method as previously described. […] Data are also evaluated for each gene with regard to sensitivity, maximally effective concentration of curcuminoid, response to Aβ, and overall magnitude of fold-expression changes. […]

TLR3 = TLR3 gene expression by qPCR in U-937 human monocytic cells treated with curcumins plus Aβ; type: cell-based; conditions: for Relative gene expression TLR3, increased expression relative to control cells: human monocytic cells (U-937), curcumin plus Aβ
Procedure: as §3, §4, §5, §1
(§7) Data showing in vitro up-regulation of genes associated with Aβ phagocytosis in response to curcumins. Natural curcumins and synthetic analogs were tested in U-937 human monocyte cells in vitro for their ability to modulate expression of the genes MGAT3 and TLRs −2, −3, and −4. […]

TLR4 = TLR4 gene expression by qPCR in U-937 human monocytic cells treated with curcumins plus Aβ; type: cell-based; conditions: human monocytic cells (U-937), curcumin plus Aβ
Procedure: as §3, §4, §5, §6

VDR = VDR gene expression by qPCR in U-937 human monocytic cells treated with curcumins plus Aβ; type: cell-based; conditions: for Relative gene expression VDR, increased expression relative to control cells: human monocytic cells (U-937), curcumin plus Aβ
Procedure: as §3, §4, §5, §1, §7

[6] = water (aqueous solution), pH 7.4, value given in h, read-out: Chemical stability t1/2 pH 7.4 (converted)
[7] = water, H2O, value given in h, read-out: Chemical stability t1/2 H2O (converted)

half-life [1] [min] | half-life [2] [min] | half-life [3, 6] [min] | half-life [3, 7] [min] | solubility (Average solubility) [µg/mL] | Papp (Average permeability) [×10⁻⁶ cm/s] | IC50 (Anti-oxidant activity) [µM] | Solubility compared with parent compounds (in words) (Average solubility) | SMILES | Relative ratio of MGAT3 transcription in AD patient / control PBMC's (MGAT3 [4]) | Relative ratio of TLR 2 transcription in AD patient / control PBMC's (TLR 2) | Relative ratio of TLR 3 transcription in AD patient / control PBMC's (TLR 3) | Relative ratio of TLR 4 transcription in AD patient / control PBMC's (TLR 4) | Chemical stability H2O (stable/unstable) ([3]; H2O) | Chemical stability pH 7.4 (stable/unstable) ([3]; pH 7.4) | Relative gene expression MGAT3, increased expression relative to control cells (MGAT3 [5]) | Relative gene expression TLR2, increased expression relative to control cells (TLR2) | Relative gene expression TLR3, increased expression relative to control cells (TLR3) | Relative gene expression TLR4, increased expression relative to control cells (TLR4) | Relative gene expression VDR, increased expression relative to control cells (VDR) | also measured
55.8 | 9 | 138 | 1090 | 22.8 (≈ 40.2 µM) | 572 | – | – | COc1cc(/C=C/C(=O)/C=C(O)/C=C/c2ccc(OC(=O)C(N)C(C)C)c(OC)c2)ccc1OC(=O)C(N)C(C)C (centres unmarked) [Compound 35, 4,4′-(3,5-Dioxohepta-1,6-diene-1,7-diyl)bis(2-methoxy-4,1-phenylene)bis(2-amino-3-methylbutanoate)] | ++ ((++) indicates a ratio of 1.5-2.0) | TLR 2 +++ ((+++ to ++++) indicates a ratio of 2.0 and above) | – | TLR 4 + ((+) indicates a ratio of 1.0-1.5) | – | – | – | – | – | – | – | –
19.9 | 4.5 | – | – | 30.6 (≈ 49 µM) | 718 | – | significantly improved solubility | COc1cc(/C=C/C(=O)/C=C(O)/C=C/c2ccc(OC(=O)C(N)CCCCN)c(OC)c2)ccc1OC(=O)C(N)CCCCN (centres unmarked) [Compound 36, 4,4′-(3,5-dioxohepta-1,6-diene-1,7-diyl)bis(2-methoxy-4,1-phenylene)bis(2,6-diaminohexanoate)] | – | – | – | – | – | unstable (stability half-lives less than 5 minutes) | + ((+) <20-fold) | + ((+) <20-fold) | + ((+) <20-fold) | + ((+) <20-fold) | + ((+) <20-fold) | half-life ([3]; water, H2O, read-out: Chemical stability t1/2 H2O (converted)): 10.2 min

Continued, compound first:

SMILES | half-life [1] [min] | half-life [2] [min] | half-life [3, 6] [min] | half-life [3, 7] [min] | solubility (Average solubility) [µg/mL] | Papp (Average permeability) [×10⁻⁶ cm/s] | IC50 (Anti-oxidant activity) [µM] | Solubility compared with parent compounds (in words) (Average solubility) | Relative ratio of MGAT3 transcription in AD patient / control PBMC's (MGAT3 [4]) | Relative ratio of TLR 2 transcription in AD patient / control PBMC's (TLR 2) | Relative ratio of TLR 3 transcription in AD patient / control PBMC's (TLR 3) | Relative ratio of TLR 4 transcription in AD patient / control PBMC's (TLR 4) | Chemical stability H2O (stable/unstable) ([3]; H2O) | Chemical stability pH 7.4 (stable/unstable) ([3]; pH 7.4) | Relative gene expression MGAT3, increased expression relative to control cells (MGAT3 [5]) | Relative gene expression TLR2, increased expression relative to control cells (TLR2) | Relative gene expression TLR3, increased expression relative to control cells (TLR3) | Relative gene expression TLR4, increased expression relative to control cells (TLR4) | Relative gene expression VDR, increased expression relative to control cells (VDR) | also measured
COc1cc(N(C)C)ccc1/C=C/C(=O)/C=C(O)/C=C/c1ccc(N(C)C)cc1OC [Compound 3, 1,7-Bis(4-dimethylamino-2-methoxyphenyl)-5-hydroxy-hepta-1,4,6-trien-3-one] | 63.6 | 39.5 | 1530 | 1190 | 0.73 (≈ 1.73 µM) | – | – | – | ++ ((++) indicates a ratio of 1.5-2.0) | TLR 2 ++ ((++) indicates a ratio of 1.5-2.0) | TLR 3 ++ ((++) indicates a ratio of 1.5-2.0) | TLR 4 ++ ((++) indicates a ratio of 1.5-2.0) | – | – | – | – | – | – | – | –
COc1cc(N(C)C)ccc1/C=C/C(O)=C1\CCC/C(=C\c2ccc(N(C)C)cc2OC)C1=O [Compound 7, 2-(4-(Dimethylamino-2-methoxybenzylidene)-3-(4-(dimethylamino)-2-methoxyphenyl)-1-hydroxyallylidene)cyclohexanone] | 127 | 184 | – | – | – | 4.8 | – | – | +++ ((+++ to ++++) indicates a ratio of 2.0 and above) | – | – | – | stable^a (stability half-lives greater than 5 hours) | stable (stability half-lives greater than 5 hours) | – | – | – | – | – | –
COc1ccc(F)cc1/C=C/C(=O)/C=C(O)/C=C/c1cc(F)ccc1OC [Compound 26, 1,7-bis-(5-Fluoro-2-methoxyphenyl)-5-hydroxy-hepta-1,4,6-trien-3-one] | 59.2 | 8.2 | – | – | 0.44 (≈ 1.18 µM) | 129 | > 250 | – | – | TLR 2 + ((+) indicates a ratio of 1.0-1.5) | TLR 3 ++ ((++) indicates a ratio of 1.5-2.0) | TLR 4 + ((+) indicates a ratio of 1.0-1.5) | stable (stability half-lives greater than 5 hours) | stable (stability half-lives greater than 5 hours) | – | – | – | – | – | –
CC(C)C(N)C(=O)Oc1ccc(/C=C/C(=O)/C=C(O)/C=C/c2ccc(OC(=O)C(N)C(C)C)cc2)cc1 (centres unmarked) [Compound 33, 4,4′-(3,5-Dioxohepta-1,6-diene-1,7-diyl)bis(4,1-phenylene) bis(2-amino-3-methylbutanoate)] | 23.8 | 5.9 | 60 | 1130 | 18.2 (≈ 35.9 µM) | 316 | > 250 | significantly improved solubility | + ((+) indicates a ratio of 1.0-1.5) | TLR 2 ++ ((++) indicates a ratio of 1.5-2.0) | TLR 3 ++ ((++) indicates a ratio of 1.5-2.0) | TLR 4 + ((+) indicates a ratio of 1.0-1.5) | – | – | +++ ((+++) >40-fold) | + ((+) <20-fold) | + ((+) <20-fold) | + ((+) <20-fold) | ++ ((++) >20-fold) | TLR3 expression response (in words) (TLR3; U-937, plus Aβ (FIG. 3)): limited response; VDR normalized expression response (in words) (VDR; human monocytes, plus Aβ): somewhat higher expression
